Assay results published in publication PMC3382171 (PLoS ONE, 2012).

Columns and labels:
Experiment in all cases: biochemical
Parameters in all cases: Invitrogen SelectScreen kinase panel, percent inhibition at 1 uM, ATP at Km
Conditions in all cases: read-out: Invitrogen KSS %Inh at 1 µM
CSF1R (FMS) = CSF1R (FMS) (Homo sapiens, UniProt P07333)
Experimental: (§1) The METi and RAFi were screened against kinase panels (SelectScreen, Invitrogen; University of Dundee, Division of Signal Transduction Therapy, UK; Upstate Biotechnology/Millipore, Billerica, MA). In these selectivity assays the concentration of ATP was set to the Km value of ATP for each kinase tested to allow for a relative potency comparison between the various kinases. The compounds were tested at 1 µM final concentration. […] Supplementary file pone.0039653.s002.pdf: Figure S2 Kinase Selectivity Screen of RAFi. (A) Kinase selectivity screen (KSS) performed at University of Dundee (Division of Signal Transduction Therapy). Values in % inhibition of phosphorylation given 1 µM of RAFi compared to control. (B) KSS performed at Invitrogen (Selectscreen Service) compared to control. Values in % inhibition of phosphorylation given 1 µM of RAFi. (C) Cell based dose response kinase inhibition of indicated kinases by RAFi. (PDF) Click here for additional data file.

AURKA (Aurora A) = AURKA (Aurora A) (Homo sapiens, UniProt O14965)
Experimental: as §1

ALK = ALK (Homo sapiens, UniProt Q9UM73)
ALK, sequence (Q9UM73 whole entry): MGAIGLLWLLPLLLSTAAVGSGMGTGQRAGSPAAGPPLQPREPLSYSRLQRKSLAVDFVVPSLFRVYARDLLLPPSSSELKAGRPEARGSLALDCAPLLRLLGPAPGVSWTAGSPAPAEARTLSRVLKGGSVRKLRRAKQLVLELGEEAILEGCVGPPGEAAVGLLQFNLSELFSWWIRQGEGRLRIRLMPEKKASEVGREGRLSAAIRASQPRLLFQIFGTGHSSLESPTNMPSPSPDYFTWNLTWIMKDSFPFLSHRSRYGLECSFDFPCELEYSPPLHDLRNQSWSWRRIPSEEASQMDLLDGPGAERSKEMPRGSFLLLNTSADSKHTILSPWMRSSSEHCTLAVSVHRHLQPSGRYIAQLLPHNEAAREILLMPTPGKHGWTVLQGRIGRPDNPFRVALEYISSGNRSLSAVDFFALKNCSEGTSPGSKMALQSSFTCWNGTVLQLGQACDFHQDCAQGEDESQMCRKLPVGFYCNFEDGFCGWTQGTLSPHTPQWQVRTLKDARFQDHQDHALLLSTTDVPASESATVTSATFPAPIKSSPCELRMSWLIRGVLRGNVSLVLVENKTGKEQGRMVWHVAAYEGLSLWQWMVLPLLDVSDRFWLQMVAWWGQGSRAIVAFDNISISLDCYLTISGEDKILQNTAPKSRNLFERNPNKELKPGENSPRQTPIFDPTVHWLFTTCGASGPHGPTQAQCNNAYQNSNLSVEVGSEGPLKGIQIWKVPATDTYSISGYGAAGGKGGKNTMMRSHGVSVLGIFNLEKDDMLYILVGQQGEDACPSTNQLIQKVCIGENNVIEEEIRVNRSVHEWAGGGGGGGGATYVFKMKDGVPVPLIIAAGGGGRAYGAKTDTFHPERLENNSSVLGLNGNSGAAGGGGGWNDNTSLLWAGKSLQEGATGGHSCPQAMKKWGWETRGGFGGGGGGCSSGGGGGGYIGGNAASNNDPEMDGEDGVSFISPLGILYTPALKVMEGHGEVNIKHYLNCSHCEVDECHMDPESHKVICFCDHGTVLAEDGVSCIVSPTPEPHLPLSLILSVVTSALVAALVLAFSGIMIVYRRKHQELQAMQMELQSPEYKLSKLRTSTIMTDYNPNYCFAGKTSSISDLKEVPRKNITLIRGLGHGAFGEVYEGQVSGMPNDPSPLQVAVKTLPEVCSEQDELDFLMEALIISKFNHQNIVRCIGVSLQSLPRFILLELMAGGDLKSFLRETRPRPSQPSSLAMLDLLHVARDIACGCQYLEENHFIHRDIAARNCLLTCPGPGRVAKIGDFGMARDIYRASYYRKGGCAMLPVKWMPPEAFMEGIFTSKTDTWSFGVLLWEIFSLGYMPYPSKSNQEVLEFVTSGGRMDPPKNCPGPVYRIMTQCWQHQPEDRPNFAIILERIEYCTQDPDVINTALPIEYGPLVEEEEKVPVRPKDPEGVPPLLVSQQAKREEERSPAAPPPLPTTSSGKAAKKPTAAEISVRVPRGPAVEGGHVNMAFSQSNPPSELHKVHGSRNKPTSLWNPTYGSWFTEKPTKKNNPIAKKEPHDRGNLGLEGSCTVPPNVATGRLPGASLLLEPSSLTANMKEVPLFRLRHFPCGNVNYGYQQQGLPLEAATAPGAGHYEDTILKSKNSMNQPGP
Experimental: as §1

PDK1 = target: T1, PDK1 (Homo sapiens, UniProt O15530)
T1 construct: gene PDPK1
Experimental: as §1

PLK1 = PLK1 (Homo sapiens, UniProt P53350)
Experimental: as §1

PKN1 (PRK1) = PKN1 (PRK1) (Homo sapiens, UniProt Q16512)
Experimental: as §1

PRKD2 (PKD2) = PRKD2 (PKD2) (Homo sapiens, UniProt Q9BZL6)
Experimental: as §1

SGK (SGK1) = SGK (SGK1) (Homo sapiens, UniProt O00141)
SGK (SGK1), sequence (O00141 whole entry): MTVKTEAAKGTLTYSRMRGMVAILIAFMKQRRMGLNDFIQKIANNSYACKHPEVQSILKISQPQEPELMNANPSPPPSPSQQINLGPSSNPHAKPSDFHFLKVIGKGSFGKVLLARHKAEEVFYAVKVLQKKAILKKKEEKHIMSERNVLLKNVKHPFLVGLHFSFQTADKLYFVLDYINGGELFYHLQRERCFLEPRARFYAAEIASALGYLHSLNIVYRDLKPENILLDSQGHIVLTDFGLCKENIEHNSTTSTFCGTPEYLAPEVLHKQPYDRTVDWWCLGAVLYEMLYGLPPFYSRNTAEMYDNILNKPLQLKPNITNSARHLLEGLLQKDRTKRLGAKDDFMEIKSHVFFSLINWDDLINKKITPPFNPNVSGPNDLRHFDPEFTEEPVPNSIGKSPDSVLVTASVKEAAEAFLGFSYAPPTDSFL
Experimental: as §1

KIT = KIT (Homo sapiens, UniProt P10721)
Experimental: as §1

LYN A = target: T2, LYN A (Homo sapiens, UniProt P07948)
T2 construct: isoform A
Experimental: as §1

MAPKAPK2 = MAPKAPK2 (Homo sapiens, UniProt P49137)
Experimental: as §1

CSK = CSK (Homo sapiens, UniProt P41240)
Experimental: as §1

CHEK1 (CHK1) = CHEK1 (CHK1) (Homo sapiens, UniProt O14757)
Experimental: as §1

ERBB2 (HER2) = ERBB2 (HER2) (Homo sapiens, UniProt P04626)
Experimental: as §1

IRAK4 = IRAK4 (Homo sapiens, UniProt Q9NWZ3)
IRAK4, sequence (Q9NWZ3 whole entry): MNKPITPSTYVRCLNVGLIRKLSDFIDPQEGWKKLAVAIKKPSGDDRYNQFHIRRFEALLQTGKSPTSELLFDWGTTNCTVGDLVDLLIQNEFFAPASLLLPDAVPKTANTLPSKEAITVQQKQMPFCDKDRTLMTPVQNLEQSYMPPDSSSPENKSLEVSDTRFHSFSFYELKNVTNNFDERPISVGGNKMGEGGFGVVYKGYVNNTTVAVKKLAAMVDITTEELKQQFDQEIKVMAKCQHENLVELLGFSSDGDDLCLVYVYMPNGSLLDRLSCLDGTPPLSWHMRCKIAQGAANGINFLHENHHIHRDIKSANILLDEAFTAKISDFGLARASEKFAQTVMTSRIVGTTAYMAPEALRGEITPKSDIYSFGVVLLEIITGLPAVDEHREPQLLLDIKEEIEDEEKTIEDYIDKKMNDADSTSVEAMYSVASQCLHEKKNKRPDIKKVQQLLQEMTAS
Experimental: as §1

YES1 = YES1 (Homo sapiens, UniProt P07947)
YES1, sequence (P07947 whole entry): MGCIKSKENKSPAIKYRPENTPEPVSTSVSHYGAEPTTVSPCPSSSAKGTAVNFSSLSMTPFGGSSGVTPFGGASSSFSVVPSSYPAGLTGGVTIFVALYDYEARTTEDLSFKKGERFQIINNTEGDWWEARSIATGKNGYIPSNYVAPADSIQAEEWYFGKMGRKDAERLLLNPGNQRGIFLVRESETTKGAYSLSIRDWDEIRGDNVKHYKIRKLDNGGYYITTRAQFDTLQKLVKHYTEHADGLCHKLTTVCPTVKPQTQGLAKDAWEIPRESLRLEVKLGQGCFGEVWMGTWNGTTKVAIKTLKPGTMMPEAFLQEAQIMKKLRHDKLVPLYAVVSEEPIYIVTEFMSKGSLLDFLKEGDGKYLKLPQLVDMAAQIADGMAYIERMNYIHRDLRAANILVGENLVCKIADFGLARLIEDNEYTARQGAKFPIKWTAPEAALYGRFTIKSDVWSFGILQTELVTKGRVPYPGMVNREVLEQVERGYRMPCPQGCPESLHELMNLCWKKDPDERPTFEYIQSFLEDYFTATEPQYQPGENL
Experimental: as §1

CAMK4 (CaMKIV) = CAMK4 (CaMKIV) (Homo sapiens, UniProt Q16566)
Experimental: as §1

AKT1 (PKB alpha) = AKT1 (PKB alpha) (Homo sapiens, UniProt P31749)
Experimental: as §1

MARK2 = MARK2 (Homo sapiens, UniProt Q7KZI7)
MARK2, sequence (Q7KZI7 whole entry): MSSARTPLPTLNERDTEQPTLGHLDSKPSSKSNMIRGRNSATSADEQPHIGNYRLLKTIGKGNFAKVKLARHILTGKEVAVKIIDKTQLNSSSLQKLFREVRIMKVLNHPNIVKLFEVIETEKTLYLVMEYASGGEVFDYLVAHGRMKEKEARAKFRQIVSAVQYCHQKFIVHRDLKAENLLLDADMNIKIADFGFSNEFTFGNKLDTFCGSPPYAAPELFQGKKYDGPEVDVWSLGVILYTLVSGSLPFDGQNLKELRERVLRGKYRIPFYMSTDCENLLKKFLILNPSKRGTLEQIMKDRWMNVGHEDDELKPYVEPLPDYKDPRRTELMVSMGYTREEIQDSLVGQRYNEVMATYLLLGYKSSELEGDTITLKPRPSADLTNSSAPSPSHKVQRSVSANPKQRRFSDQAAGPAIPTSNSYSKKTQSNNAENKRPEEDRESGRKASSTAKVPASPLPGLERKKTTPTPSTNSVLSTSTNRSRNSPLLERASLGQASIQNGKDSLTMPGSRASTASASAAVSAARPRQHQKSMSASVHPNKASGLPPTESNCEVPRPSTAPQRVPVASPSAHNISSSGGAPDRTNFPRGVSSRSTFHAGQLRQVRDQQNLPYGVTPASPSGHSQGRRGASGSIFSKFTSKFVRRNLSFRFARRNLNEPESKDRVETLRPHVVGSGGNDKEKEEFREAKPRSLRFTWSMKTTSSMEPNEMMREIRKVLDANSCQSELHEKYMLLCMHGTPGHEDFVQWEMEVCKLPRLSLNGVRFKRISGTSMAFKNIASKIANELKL
Experimental: as §1

CSNK2A1 (CK2 alpha 1) = CSNK2A1 (CK2 alpha 1) (Homo sapiens, UniProt P68400)
Experimental: as §1

CAMK2A (CaMKII alpha) = CAMK2A (CaMKII alpha) (Homo sapiens, UniProt Q9UQM7)
Experimental: as §1

TYRO3 (RSE) = TYRO3 (RSE) (Homo sapiens, UniProt Q06418)
Experimental: as §1

CSF1R (FMS), sequence (P07333 whole entry): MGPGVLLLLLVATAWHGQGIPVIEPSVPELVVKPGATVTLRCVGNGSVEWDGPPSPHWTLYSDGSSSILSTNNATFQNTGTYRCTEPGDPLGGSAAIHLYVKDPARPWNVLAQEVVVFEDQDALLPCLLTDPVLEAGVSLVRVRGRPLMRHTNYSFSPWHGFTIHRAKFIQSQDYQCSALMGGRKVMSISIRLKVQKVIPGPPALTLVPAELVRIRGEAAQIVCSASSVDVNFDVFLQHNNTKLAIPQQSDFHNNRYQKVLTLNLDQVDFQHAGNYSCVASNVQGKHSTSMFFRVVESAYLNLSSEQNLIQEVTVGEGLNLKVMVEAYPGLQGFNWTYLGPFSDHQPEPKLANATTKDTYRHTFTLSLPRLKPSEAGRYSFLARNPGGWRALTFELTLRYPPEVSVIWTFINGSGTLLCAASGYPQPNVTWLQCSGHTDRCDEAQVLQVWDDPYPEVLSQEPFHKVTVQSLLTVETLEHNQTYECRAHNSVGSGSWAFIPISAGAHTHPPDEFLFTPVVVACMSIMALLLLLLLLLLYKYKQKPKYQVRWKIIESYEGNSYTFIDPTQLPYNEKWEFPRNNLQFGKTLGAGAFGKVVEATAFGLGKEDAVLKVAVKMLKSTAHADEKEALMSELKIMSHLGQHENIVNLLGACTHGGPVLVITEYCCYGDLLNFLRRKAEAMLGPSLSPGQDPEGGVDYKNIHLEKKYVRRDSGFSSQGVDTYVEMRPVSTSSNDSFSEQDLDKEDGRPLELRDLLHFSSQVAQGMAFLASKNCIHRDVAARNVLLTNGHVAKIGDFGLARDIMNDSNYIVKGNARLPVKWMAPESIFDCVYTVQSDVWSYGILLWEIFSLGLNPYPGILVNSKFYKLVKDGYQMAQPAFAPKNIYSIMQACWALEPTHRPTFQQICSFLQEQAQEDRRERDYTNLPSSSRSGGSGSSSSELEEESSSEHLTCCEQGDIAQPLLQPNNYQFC

inhibition at 1 µM (CSF1R (FMS)): 33%
inhibition at 1 µM (AURKA (Aurora A)): 15%
inhibition at 1 µM (ALK): 23%
inhibition at 1 µM (PDK1): 13%
inhibition at 1 µM (PLK1): 27%
inhibition at 1 µM (PKN1 (PRK1)): -10%
inhibition at 1 µM (PRKD2 (PKD2)): 40%
inhibition at 1 µM (SGK (SGK1)): 7%
inhibition at 1 µM (KIT): 36%
inhibition at 1 µM (LYN A): 2%
inhibition at 1 µM (MAPKAPK2): 3%
inhibition at 1 µM (CSK): 1%
inhibition at 1 µM (CHEK1 (CHK1)): 3%
inhibition at 1 µM (ERBB2 (HER2)): 10%
inhibition at 1 µM (IRAK4): -16%
inhibition at 1 µM (YES1): 16%
inhibition at 1 µM (CAMK4 (CaMKIV)): -5%
inhibition at 1 µM (AKT1 (PKB alpha)): 5%
inhibition at 1 µM (MARK2): 9%
inhibition at 1 µM (CSNK2A1 (CK2 alpha 1)): -1%
inhibition at 1 µM (CAMK2A (CaMKII alpha)): -1%
inhibition at 1 µM (TYRO3 (RSE)): 10%
Compound: N#CCCNc1nccc(-c2cn(CC(F)F)nc2-c2cnc3[nH]ccc3c2)n1 [RAFi, PF-04880594]
